≈ marks a conversion by molar mass, not a printed value.
Legend:
[1] = cited from earlier work
[2] = Beta-carotene assay; settings: for Antioxidant properties: Beta-carotene assay: 5 mMole/liter in 1-octanol; for antioxidant performance in the beta carotene bleaching assay: FIG. 3
Description: In this assay, the antioxidant activity of a component is assessed by its ability to prevent bleaching of a beta-carotene solution by radicals formed upon illumination.
A beta-carotene solution (20 mg/ml) was prepared freshly in 1-octanol (Sigma) and 900 μl aliquots were transferred to 2 ml spectrophotometer cuvettes. 100 μl of 50 mMole/liter solutions of enhancing agents of the invention (dissolved in 1-octanol) were added to the solution (final concentration of the enhancing agents is 5 mMole/liter). The solutions were illuminated for up to 5 hours and spectrophotometric analysis was carried out at indicated time points.

[3] = test system: MRSA (Methicillin-Resistant Staphylococcus aureus); assay: Growth retardation of MRSA in TS broth with enzyme/substrate system; assay type: cell-based; settings: FIG. 8; 0.08% dilution of enzyme/substrate
Description: A bacterial cell culture (A600=0.02) was grown in Tryptic Soy (TS) broth (Difco™, Becton Dickinson) in the presence of a 0.08% dilution (suboptimal concentration) of the enzyme/substrate system described in example 1. […] (see FIG. 8). It is observed that this effect is maintained for a significant time period.

[4] = test system: S. aureus; assay: Antibacterial activity on S. aureus of oxidase/peroxidase with enhancing agents; assay type: cell-based, Staphylococcus aureus; settings: for bactericidal capacity when mixed with the enzyme-substrate solution / effect on cell survival of the separate systems: FIG. 1; for bactericidal capacity when mixed with the enzyme-substrate solution: enhancing agent and ES; for effect on cell survival of the separate systems: enhancing agent only; for Enhancing effect on oxidase/peroxidase assay: antimicrobial effect; for enhancing activity on glucose/peroxidase antibacterial activity: present experimental setting; for antibacterial activity of compositions with enhancing agent, substrate and enzyme: FIG. 2
Description: Bacterial cells (S. aureus) were plated on Trypticase Soybean Agar plates (Becton Dickinson) and incubated overnight at 37° C. Cells were recovered from plates and mixed with NaCl-peptone broth buffer (Merck). The amount of medium is adjusted to give a bacterial suspension with a cell density of OD600=0.25 for bacteria.
For the examples described in the following examples, a fresh dilution of 0.25% (v/v) enzyme-substrate (Biovert™) stock solutions were prepared for each independent test. The Biovert™ enzyme stock solution contains 1527 U/ml lactoperoxidase; 2016 U/ml glucose oxidase; the Biovert™ substrate stock solution comprises: 55% (w/v) glucose, 0.51% (w/v) KSCN, 0.73% (w/v) KI.
In order to assess the synergistic action of the enhancing agent on the enzyme-substrate enhancing agent, the concentration of enzyme-substrate was adjusted to obtain conditions wherein the oxidase/peroxidase in a hydrogel performs limited but measurable antibacterial activity. The above mentioned (0.25% (v/v)) solution has accordingly been further diluted to 0.017% (v/v).
(§1) A 0.33% (w/v) Na-alginaat (Kelset), 0.66% (v/v) PEG400 gel solution was prepared in water, autoclaved and subsequently cooled to room temperature.
(§2) For the antibacterial assay the following components are mixed: 100 μl of bacterial cell suspension, 100 μl enzyme-substrate master solution (0.25%), 1 g (=1 ml) gel solution, 0.1-1 mg enhancing agent, 300 μl milliQ water. Final concentrations of the enzyme/substrate in the reaction mixture are 0.015 U/ml glucose oxidase, 0.011 U/ml lactoperoxidase, 0.00007% (w/v) potassium thiocyanate, 0.0001% (w/v) potassium iodide, 0.0076% glucose, and 0.066-0.66 mg/ml enhancing agent.

[5] = DPPH-radical bleaching assay; settings: for Antioxidant properties: DPPH assay: 5 mMole/liter in 1-octanol; for potency as reducer / antioxidant efficiency: FIG. 4
Description: DPPH (1,1-DiPhenyl-2-PicrylHydrazyl) is a cell-permeable, stable free radical that acts as a hydrogen radical scavenger, and is used as a screening tool for detecting free radical scavenging activity of antioxidants. When a radical solution is brought into contact with an antioxidant, the radical-molecule is reduced and thereby looses its characteristic purple colour. This “bleaching” can be monitored by spectrophotometric analysis.
A DPPH-radical solution (15 mg/ml) was prepared freshly in 1-octanol (Sigma) and 900 μl aliquots were transferred to 2 ml spectrophotometer cuvettes. 100 μl of 50 mMole/liter solutions of enhancing agents (dissolved in 1-octanol) were added to the solution (final concentration of the enhancing agents is 5 mMole/liter). Spectrophotometric analysis of the samples was carried out within 5 minutes, in order to prevent quenching caused by free (e.g. air born) radicals.

[6] = test system: mouse 3T3 fibroblast cells; assay: Cell toxicity (MTT) of oxidase/peroxidase alginate gel with guaiacol; assay type: cell-based; settings: 200 μM guaiacol in gel, diluted 1 g in 9 ml, 24 hours; p=0.32
Description: (§3) HaCat keratinocytes cells and mouse 3T3 fibroblast cells were grown in the following growth medium: DMEM medium (high glucose; Sigma) supplemented with heat inactivated calf serum (10%) (Life Technologies), L-glutamine (4 mM) (Sigma) and Streptomycin/Penicillin (100 U) (Sigma). […] As a control an identical gel without guaiacol was prepared. One gram of the alginate gel was dissolved in 9 ml growth medium (diluted alginate gel). Cells were seeded at subconfluency. After overnight incubation at 37° C., 5% CO2, growth medium was replaced by diluted alginate gel and the cells were incubated at 37° C., 5% CO2 for another 24 hours. […] Cells were incubated in this MTT-medium for an additional 3 h. Cell viability and metabolism was assayed by determining the chromophoric conversion product of MMT at 570 nm.

[7] = test system: HaCat keratinocytes cells; assay: as above; assay type: cell-based; settings: 200 μM guaiacol in gel, diluted 1 g in 9 ml, 24 hours; p=0.31
Description: as §3

[8] = test system: MRSA (methicillin resistant S. aureus) bacteria; assay: Antibacterial activity on MRSA of oxidase/peroxidase with enhancing agents; assay type: cell-based, Staphylococcus aureus; settings: for enhancing effect on the peroxidase/oxidase activity / antibacterial effect of compound alone: FIG. 5; for enhancing effect on the peroxidase/oxidase activity: ES + enhancing agent; for antibacterial effect of compound alone: enhancing agent alone
Description: The effect of vanillin and guaiacol on the peroxidase/oxidase activity was assayed on MRSA (methicillin resistant S. aureus) bacteria using growth conditions and assay conditions as described in example 1.

[9] = test system: Candida albicans; assay: Growth retardation of Candida albicans in SD broth with enzyme/substrate system; assay type: cell-based; settings: FIG. 9; 0.02% dilution of enzyme/substrate
Description: A yeast cell culture (A600=0.05) was grown in Sabouraud Dextrose (SD) broth (Difco™, Becton Dickinson) in the presence of a 0.02% dilution (suboptimal concentration) of the enzyme/substrate system described in example 1.

[10] = test system: E. coli; assay: Antibacterial activity on E. coli of enhancing agents and oxidase/peroxidase; assay type: cell-based, Escherichia coli; settings: FIG. 7; 6 hours of incubation
Description: Experiments using the conditions described in Example 1 and 2 were performed with Gram-negative bacteria (E. coli).

[11] = Dispersion or dissolution in the hydrophilic gel setting; assay type: physicochemical; settings: present experimental setting, hydrogel
Description: as §1, §2

Row | Compound | Solubility in water [1] | Antioxidant properties: Beta-carotene assay [2] | Enhancing effect on oxidase/peroxidase assay [4] | Antioxidant properties: DPPH assay [5] | also measured
1 | COc1cccc(O)c1 [m-Guaiacol, 3-methoxyphenol] | 500 µg/mL (≈ 4.03 mM) |  |  |  | 
2 | COc1ccccc1O [Guaiacol, 2-methoxyphenol] |  | ++ | + | +++ | antioxidant performance in the beta carotene bleaching assay [2]: very effective; suppression of bacterial growth on addition to enzyme/substrate system [3]: additional suppression of the bacterial growth; bactericidal capacity when mixed with the enzyme-substrate solution [4]: markedly enhanced the bactericidal capacity; effect on cell survival of the separate systems [4]: only moderately affected cell survival; potency as reducer / antioxidant efficiency [5]: nearly as efficient as gallic acid and propyl gallate; metabolic activity of cells (MTT), alginate hydrogel with versus without guaiacol [6]: no statistical difference; metabolic activity of cells (MTT), alginate hydrogel with versus without guaiacol [7]: no statistical difference; enhancing effect on the peroxidase/oxidase activity [8]: enhancing effect; antibacterial effect of compound alone [8]: limited effect; enhancing effect on peroxidase/oxidase activity ([8]; FIG. 6, different concentrations of guaiacol): significant enhancing effect; suppression of fungal growth on addition to enzyme/substrate system [9]: additional suppression of the fungal growth; antibacterial effectiveness in combination with the enzyme-substrate [10]: more effective than enzyme-substrate alone
3 | CCOc1cc(C=O)ccc1O [Ethylvanillin, 3-ethoxy-4-hydroxy-benzaldehyde] |  |  | + |  | bactericidal capacity when mixed with the enzyme-substrate solution [4]: markedly enhanced the bactericidal capacity; effect on cell survival of the separate systems [4]: only moderately affected cell survival
4 | N[C@@H](Cc1c[nH]c2ccc(O)cc12)C(=O)O [5-hydroxy-tryptophane, reference compound] |  |  |  |  | enhancing activity on glucose/peroxidase antibacterial activity [4]: did not show an enhancing activity
5 | O=Cc1ccc(O)c(O)c1 [3,4 dihydroxybenzaldehyde, reference compound] |  |  |  |  | antibacterial activity of compositions with enhancing agent, substrate and enzyme [4]: less pronounced
6 | CCOc1cc(C=O)ccc1O [Quantrovanil, 3-ethoxy-4-hydroxy-benzaldehyde] | 280 µg/mL (≈ 1.68 mM) |  |  |  | 
7 | Vitamin E [reference compound] |  | + | − | + | potency as reducer / antioxidant efficiency [5]: less potent reducers than gallic acid and propyl gallate
8 | COc1cc(C=O)cc(OC)c1O [syringaldehyde] |  |  |  |  | dispersion or dissolution in hydrophilic media [11]: could not be properly dispersed or dissolved
9 | O=C(O)c1cc(O)c(O)c(O)c1 [Gallic acid, reference compound] |  | +++ | + | +++ | antibacterial activity of compositions with enhancing agent, substrate and enzyme [4]: less pronounced
10 | N[C@@H](Cc1ccc(O)cc1)C(=O)O [tyrosine, reference compound] |  |  |  |  | enhancing activity on glucose/peroxidase antibacterial activity [4]: did not show an enhancing activity
11 | CCOc1ccccc1O [Guaiethol, 2-ethoxyphenol] | 3100 µg/mL (≈ 22.4 mM) | ++ | + | +++ | antioxidant performance in the beta carotene bleaching assay [2]: very effective; potency as reducer / antioxidant efficiency [5]: nearly as efficient as gallic acid and propyl gallate
12 | COc1cc(C(=O)O)ccc1O [Vanillic acid, 4-hydroxy-3-methoxy-benzoic acid] |  | ± | + |  | 
13 | COc1cc(O)ccc1O [Methoxyhydroquinone, 2-methoxybenzene-1,4-diol] | 33000 µg/mL (≈ 235 mM) |  |  |  | 
14 | COc1cc(C(C)=O)ccc1O [Apocynin, 1-(4-hydroxy-3-methoxy-phenyl)ethanone] | 500 µg/mL (≈ 3.01 mM) |  |  |  | 
15 | COc1ccc(C=O)cc1O [Isovanilline, 3-hydroxy-4-methoxy-benzaldehyde] | 11000 µg/mL (≈ 72.3 mM) | ± | − | − | antibacterial activity of compositions with enhancing agent, substrate and enzyme [4]: less pronounced
16 | COc1cccc(C=O)c1O [o-vanillin, 2-hydroxy-3-methoxy-benzaldehyde] | 500 µg/mL (≈ 3.29 mM) |  |  |  | 
17 | COc1cc(C=O)ccc1O [Vanillin, 4-hydroxy-3-methoxy-benzaldehyde] |  | − | + | − | antioxidant performance in the beta carotene bleaching assay [2]: performed poorly; bactericidal capacity when mixed with the enzyme-substrate solution [4]: markedly enhanced the bactericidal capacity; effect on cell survival of the separate systems [4]: only moderately affected cell survival; potency as reducer / antioxidant efficiency [5]: performed poorly; enhancing effect on the peroxidase/oxidase activity [8]: enhancing effect; antibacterial effect of compound alone [8]: limited effect; suppression of fungal growth on addition to enzyme/substrate system [9]: additional suppression of the fungal growth; antibacterial effectiveness in combination with the enzyme-substrate [10]: more effective than enzyme-substrate alone
18 | Cc1cc(C(C)(C)C)c(O)c(C(C)(C)C)c1 [BHT, di-tert-butylated hydroxytoluene, reference compound] |  | +++ | + | ++ | potency as reducer / antioxidant efficiency [5]: less potent reducers than gallic acid and propyl gallate
19 | CCCOC(=O)c1cc(O)c(O)c(O)c1 [Propylgallate, propyl gallate, reference compound] |  | +++ | ± | +++ | antibacterial activity of compositions with enhancing agent, substrate and enzyme [4]: less pronounced

Reference: patent publication US8679526B2, “Antimicrobial peroxidase compositions” (Flen Pharma N.V., priority 2005, dated 2014)
